Test results published in patent US20130190223A1, “NONIMMUNOSUPPRESSIVE CYCLOSPORINE ANALOGUE MOLECULES” (ISOTECHNIKA PHARMA INC., priority 2008, published 2013).
Like-named read-outs stand apart in the source and are kept apart here.

How the values were obtained:
[1] = tested on: calcineurin; details: literature statement; cited from earlier work
[2] = biological target: CyP-A (Homo sapiens, UniProt P62937); details: cited from earlier work
[3] = biological target: T1, CyP-D (Rattus norvegicus, UniProt P29117); type: biochemical; details: mitochondria isolated from rat liver, 190 μM calcium, swelling as decline in A540
T1 construct: Mitochondria were isolated from fresh rat liver; from tissue; host or cells: rat liver mitochondria
Excerpt: A mitochondria swelling assay was used to measure the efficacy of NICAMs in blocking CyP-D and mitochondrial permeability transition. Under certain pathological conditions, mitochondria lose the ability to regulate calcium levels, and excessive calcium accumulation in the mitochondrial matrix results in the opening of large pores in the inner mitochondrial membrane. Nonselective conductance of ions and molecules up to 1.5 kilodaltons through the pore, a process called mitochondrial permeability transition, leads to swelling of mitochondria and other events which culminate in cell death. […] In general, mitochondria isolated from rat liver were exposed to calcium to induce MPTP opening in the absence or presence of test compounds, and calcium-induced swelling was measured as a reduction in light absorbance at 540 nm.
Mitochondria were isolated from fresh rat liver. Ice-cold or 4° C. conditions were used throughout all steps of the isolation. The liver was rinsed thoroughly and chopped in a small volume of isolation buffer (IB; 10 mM Hepes, 70 mM sucrose, 210 mM mannitol, 0.5 mM EDTA). Aliquots of the minced liver were homogenized in IB using a Teflon-glass Potter-Elvehjem tissue grinder and passed through a cell screen filter. The filtered homogenate was centrifuged at 600 g for 10 min, then the resulting supernatant centrifuged at 7000 g for 10 min. The supernatant was discarded, and the pellet resuspended in wash buffer (10 mM Hepes, 70 mM sucrose, 210 mM mannitol) and centrifuged a final time at 7000 g for 10 min. The supernatant was discarded, and the mitochondria-containing pellet suspended and stored on ice in 2 mL of respiration buffer (RB; 5 mM Hepes, 70 mM sucrose, 210 mM mannitol, 10 mM sodium succinate, 1 mM sodium phosphate dibasic).
Test compound solutions were prepared from 10 mg/ml stocks (dimethyl sulfoxide vehicle) first by diluting the test compound 1000× into respiration buffer #2 (RB2; 5 mM Hepes, 70 mM sucrose, 210 mM mannitol, 10 mM sodium succinate, 1 mM sodium phosphate dibasic, 1% fetal bovine serum, 2 μM rotenone), then by 3×-serial dilutions in RB2 to achieve test compound concentrations of 10000, 3333, 1111, 370, 123, 41, and 14 ng/mL. Polystyrene tubes and plates were used for all preparations.
Swelling assays were completed in a 96-well flat-bottom polystyrene plates. In each well a 10-μL aliquot of mitochondria suspension, equivalent to 100-200 μg total protein, was combined with 90 μL of test compound, incubated for 10 min, then the baseline absorbance measured on a plate reader (540 nm wavelength; A540). Swelling was induced by adding 5 μL of 4 mM calcium chloride to achieve a final calcium concentration of 190 μM. Mitochondria swelling was indicated by a decline in A540. […] Duplicate samples were assayed for each test compound concentration.
Means and ranges of duplicate samples are shown.

[4] = tested on: human lymphocytes; test: Immunosuppressive potency: inhibition of proliferation of anti-CD3 stimulated human lymphocytes (CFSE, flow cytometry); type: cell-based; details: relative potency: IC50 for inhibition of cell division normalized to CsA, 3 days incubation
Procedure: The immunosuppressive potency of test compounds was assessed by measuring their ability to inhibit the proliferation of human lymphocytes in cell culture. Lymphocytes were isolated from blood of normal human volunteers by Ficoll-gradient centrifugation and stained with 2 μg/ml carboxyfluoroscein diacetate succinimydyl ester (CFSE), a fluorescent cell division tracer molecule. Cells were stimulated through the CD3/T-cell receptor by seeding cells at 300,000/well into 96-well flat-bottom, high-binding plates coated with 1 μg/ml UCHT-1 anti-human CD3 antibody. Test compounds were prepared first as 10 mg/ml stock solutions in dimethylsulfoxide (DMSO). Test solutions were prepared by 500-fold dilution of the DMSO stock solutions, then 3-fold serial dilutions in cell culture medium (RPMI+5% FBS+penicillin-steptomycin) for a total of 7 concentrations per compound. Test solutions were added in equal volume to the culture wells containing cells to achieve final concentrations after dilution of 13.7 ng/ml-10,000 ng/ml. […] Following 3 days incubation cells were stained with CD95-APC (lymphocyte activation marker) and analyzed by flow cytometry with a Becton Dickinson FACSCalibur. Percentage cell division was assessed in forward/side-scatter-gated lymphocytes by measuring the proportion of cells that underwent one or more cell divisions as determined by serial halving of CFSE intensity. The nondivided parent population was determined from samples maintained in culture without anti-CD3 stimulation. IC50 values for inhibition of cell division were determined by nonlinear regression analysis. […]

T1 sequence (P29117 30-206): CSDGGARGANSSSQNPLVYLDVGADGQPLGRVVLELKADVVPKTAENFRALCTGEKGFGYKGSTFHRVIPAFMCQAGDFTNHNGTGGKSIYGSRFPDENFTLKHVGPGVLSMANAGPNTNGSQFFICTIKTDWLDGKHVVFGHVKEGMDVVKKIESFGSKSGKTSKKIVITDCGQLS
Sequence of CyP-A (P62937 whole entry): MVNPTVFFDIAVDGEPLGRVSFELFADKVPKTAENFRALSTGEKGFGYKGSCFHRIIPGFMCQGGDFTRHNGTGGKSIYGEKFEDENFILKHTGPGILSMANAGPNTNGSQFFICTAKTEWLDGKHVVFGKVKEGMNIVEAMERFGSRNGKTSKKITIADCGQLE

Q: What does the source list for `C/C=C/C[C@@H](C)[C@@H](O)[C@H]1C(=O)N[C@@H](CC)C(=O)N(C)CC(=O)N(C)[C@@H]([C@@H](C)CC)C(=O)N[C@@H](C(C)C)C(=O)N(C)[C@@H](CC(C)C)C(=O)N[C@@H](C)C(=O)N[C@H](C)C(=O)N(C)[C@@H](CC(C)C)C(=O)N(C)[C@@H](CC(C)C)C(=O)N(C)[C@@H](C(C)C)C(=O)N1C` [NIM 811, Melle^4-cyclosporine]?
A: immunosuppressive activity [1]: no immunosuppressive activity; binding affinity for CyP-A ([2]; literature statement): retains binding affinity for CyP-A

Q: What does the source list for `C/C=C/C[C@@H](C)[C@@H](O)[C@H]1C(=O)N[C@@H](CC)C(=O)N(C)[C@H](SCCN(C)C)C(=O)N(C)[C@@H](CC(C)(C)O)C(=O)N[C@@H](C(C)C)C(=O)N(C)[C@@H](CC(C)C)C(=O)N[C@@H](C)C(=O)N[C@H](C)C(=O)N(C)[C@@H](CC(C)C)C(=O)N(C)[C@@H](CC(C)C)C(=O)N(C)[C@@H](C(C)C)C(=O)N1C` [SCY-635, DimethylaminoethylthioSar^3-hydroxyLeu^4-Cyclosporin]?
A: immunosuppressive activity [1]: no immunosuppressive activity; binding affinity for CyP-A [2]: retains binding affinity for CyP-A

Q: What does the source list for `CCC1NC(=O)C(C(O)C(C)CC(O)CO)N(C)C(=O)C(C(C)C)N(C)C(=O)C(CC(C)C)N(C)C(=O)C(CC(C)C)N(C)C(=O)C(C)NC(=O)C(C)NC(=O)C(CC(C)C)N(C)C(=O)C(C(C)C)NC(=O)C(CC(C)C)N(C)C(=O)CN(C)C1=O` (stereo not shown) [Compound 404-126]?
A: CYP-D Inhibition (% Potency Vs CsA) [3]: 24.6%; Immunosuppression (% Relative to CsA) [4]: <1%

Q: For `CCCCCCCC=CCC(C)C(O)C1C(=O)NC(CC)C(=O)N(C)CC(=O)N(C)C(CC(C)C)C(=O)NC(C(C)C)C(=O)N(C)C(CC(C)C)C(=O)NC(C)C(=O)NC(C)C(=O)N(C)C(CC(C)C)C(=O)N(C)C(CC(C)C)C(=O)N(C)C(C(C)C)C(=O)N1C` (stereo not shown) [Compound 404-44], which “CYP-D Inhibition (% Potency Vs CsA)” value [3] is on record?
A: 1.2%

Q: What about the “Immunosuppression (% Relative to CsA)” value [4] of the same compound?
A: 1%

Q: For `CCC1NC(=O)C(C(O)C(C)CCCCCCCCO)N(C)C(=O)C(C(C)C)N(C)C(=O)C(CC(C)C)N(C)C(=O)C(CC(C)C)N(C)C(=O)C(C)NC(=O)C(C)NC(=O)C(CC(C)C)N(C)C(=O)C(C(C)C)NC(=O)C(CC(C)C)N(C)C(=O)CN(C)C1=O` (stereo not shown) [Compound 420-112], which “CYP-D Inhibition (% Potency Vs CsA)” value [3] is on record?
A: 106.7%

Q: And the “Immunosuppression (% Relative to CsA)” value [4]?
A: 2%

Q: Which results are given for `CCCNC(=O)CCC=CCC(C)C(O)C1C(=O)NC(CC)C(=O)N(C)CC(=O)N(C)C(CC(C)C)C(=O)NC(C(C)C)C(=O)N(C)C(CC(C)C)C(=O)NC(C)C(=O)NC(C)C(=O)N(C)C(CC(C)C)C(=O)N(C)C(CC(C)C)C(=O)N(C)C(C(C)C)C(=O)N1C` (stereo not shown) [Compound 404-178]?
A: CYP-D Inhibition (% Potency Vs CsA) [3]: 71.3%; Immunosuppression (% Relative to CsA) [4]: <1%

Q: With `C/C=C/C[C@@H](C)[C@@H](O)[C@H]1C(=O)N[C@@H](CC)C(=O)N(C)[C@H](C)C(=O)N(CC)[C@@H](C(C)C)C(=O)N[C@@H](C(C)C)C(=O)N(C)[C@@H](CC(C)C)C(=O)N[C@@H](C)C(=O)N[C@H](C)C(=O)N(C)[C@@H](CC(C)C)C(=O)N(C)[C@@H](CC(C)C)C(=O)N(C)[C@@H](C(C)C)C(=O)N1C` [DEBIO 025, MeAla^3EtVal^4-Cyclosporin] as the compound, how does the immunosuppressive activity [1] read?
A: no immunosuppressive activity

Q: And the “binding affinity for CyP-A” value [2]?
A: retains binding affinity for CyP-A

Q: With `CCC1NC(=O)C(C(O)C(C)CC=CCCCCCCCCCC(=O)N(C)C)N(C)C(=O)C(C(C)C)N(C)C(=O)C(CC(C)C)N(C)C(=O)C(CC(C)C)N(C)C(=O)C(C)NC(=O)C(C)NC(=O)C(CC(C)C)N(C)C(=O)C(C(C)C)NC(=O)C(CC(C)C)N(C)C(=O)CN(C)C1=O` (stereo not shown) [Compound 420-104] as the compound, how does the “CYP-D Inhibition (% Potency Vs CsA)” value [3] read?
A: 55.8%

Q: And the “Immunosuppression (% Relative to CsA)” value [4]?
A: 11%
